In ChEMBL document CHEMBL1201862, “PubChem BioAssay data set” (2004):
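Test compounds were applied to cells in 96-well plates for 48 hours at 5 doses. GI50 is the concentration that inhibits growth by half.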 The source made the active and inactive calls. No stated cut-off is given here; in the data, active = GI50 up to about 1.1 µM and inactive = higher.

What was measured:
Assay in all cases: NCI-60 cell line screen, 48 h
CCRF-CEM = system: CCRF-CEM
K562 = system: K562
SK-MEL-28 = system: SK-MEL-28
PC-3 = system: PC-3
SR = system: SR
SK-MEL-5 = system: SK-MEL-5
NCI-H522 = system: NCI-H522
786-0 = system: 786-0
U-251 = system: U-251
A549 = system: A549
SNB-19 = system: SNB-19
UO-31 = system: UO-31
NCI/ADR-RES = system: NCI/ADR-RES
T47D = system: T47D
SF-295 = system: SF-295
MDA-MB-435 = system: MDA-MB-435
M14 = system: M14
RPMI-8226 = system: RPMI-8226
DU-145 = system: DU-145
OVCAR-4 = system: OVCAR-4
HOP-62 = system: HOP-62
SN12C = system: SN12C
MCF7 = system: MCF7
OVCAR-8 = system: OVCAR-8
TK-10 = system: TK-10
RXF 393 = system: RXF 393
SK-MEL-2 = system: SK-MEL-2
SNB-75 = system: SNB-75
HT-29 = system: HT-29
IGROV-1 = system: IGROV-1
HCC 2998 = system: HCC 2998
A498 = system: A498
MDA-MB-231 = system: MDA-MB-231
UACC-257 = system: UACC-257
LOX IMVI = system: LOX IMVI
EKVX = system: EKVX
NCI-H23 = system: NCI-H23
HOP-92 = system: HOP-92
NCI-H226 = system: NCI-H226
MDA-N = system: MDA-N
SF-268 = system: SF-268
CAKI-1 = system: CAKI-1
UACC-62 = system: UACC-62
COLO 205 = system: COLO 205
OVCAR-3 = system: OVCAR-3
SK-OV-3 = system: SK-OV-3
OVCAR-5 = system: OVCAR-5
KM12 = system: KM12
Hs-578T = system: Hs-578T
HCT-15 = system: HCT-15
SF-539 = system: SF-539
MOLT-4 = system: MOLT-4
NCI-H460 = system: NCI-H460
ACHN = system: ACHN
SW-620 = system: SW-620
BT-549 = system: BT-549
HCT-116 = system: HCT-116
Malme-3M = system: Malme-3M

## CN(C)CCCNc1c(C#N)[n+]([O-])c2cc(Cl)ccc2[n+]1[O-]
CCRF-CEM
  GI50: 3.21 µM (inactive)
K562
  GI50: 3.92 µM (inactive)
SK-MEL-28
  GI50: 65.5 µM (inactive)
PC-3
  GI50: 4.91 µM (inactive)
SR
  GI50: 0.867 µM (active)
SK-MEL-5
  GI50: 5.02 µM (inactive)
NCI-H522
  GI50: 3.1 µM (inactive)
786-0
  GI50: 9.95 µM (inactive)
U-251
  GI50: 15.2 µM (inactive)
A549
  GI50: 7.67 µM (inactive)
SNB-19
  GI50: 26.2 µM (inactive)
UO-31
  GI50: 13.4 µM (inactive)
NCI/ADR-RES
  GI50: 13.2 µM (inactive)
T47D
  GI50: 11.4 µM (inactive)
SF-295
  GI50: 10.6 µM (inactive)
MDA-MB-435
  GI50: 17.3 µM (inactive)
M14
  GI50: 8.13 µM (inactive)
RPMI-8226
  GI50: 3.27 µM (inactive)
DU-145
  GI50: 21.2 µM (inactive)
OVCAR-4
  GI50: 4.75 µM (inactive)
HOP-62
  GI50: 11.4 µM (inactive)
SN12C
  GI50: 17.9 µM (inactive)
MCF7
  GI50: 9.38 µM (inactive)
OVCAR-8
  GI50: 11.7 µM (inactive)
TK-10
  GI50: 6.4 µM (inactive)
RXF 393
  GI50: 21.2 µM (inactive)
SK-MEL-2
  GI50: 9.62 µM (inactive)
SNB-75
  GI50: 31.9 µM (inactive)
HT-29
  GI50: 5.58 µM (inactive)
IGROV-1
  GI50: 1.71 µM (inactive)
HCC 2998
  GI50: 5.53 µM (inactive)
A498
  GI50: 22.1 µM (inactive)
MDA-MB-231
  GI50: 10.4 µM (inactive)
UACC-257
  GI50: 17.7 µM (inactive)
LOX IMVI
  GI50: 10.2 µM (inactive)
EKVX
  GI50: 5.78 µM (inactive)
NCI-H23
  GI50: 7.74 µM (inactive)
HOP-92
  GI50: 2.69 µM (inactive)
NCI-H226
  GI50: 12.4 µM (inactive)
MDA-N
  GI50: 17.7 µM (inactive)
SF-268
  GI50: 8.89 µM (inactive)
CAKI-1
  GI50: 7.91 µM (inactive)
UACC-62
  GI50: 5.48 µM (inactive)
COLO 205
  GI50: 4.84 µM (inactive)
OVCAR-3
  GI50: 5.68 µM (inactive)
SK-OV-3
  GI50: 18.3 µM (inactive)
OVCAR-5
  GI50: > 61.7 µM (inactive)
KM12
  GI50: 7.73 µM (inactive)
Hs-578T
  GI50: 31.6 µM (inactive)
HCT-15
  GI50: 3.75 µM
SF-539
  GI50: 14.1 µM (inactive)
MOLT-4
  GI50: 1.18 µM (inactive)
NCI-H460
  GI50: 2.62 µM (inactive)
ACHN
  GI50: 5.5 µM (inactive)
SW-620
  GI50: 9.14 µM (inactive)
BT-549
  GI50: 6.79 µM (inactive)
HCT-116
  GI50: 7.18 µM (inactive)
Malme-3M
  GI50: 3.85 µM (inactive)
